The test deals with BRD4 (BD1+BD2) bromodomain (Homo sapiens (Human), UniProt O60885). The test can be described thus: BRD4 binding inhibition (AlphaScreen, GST-BRD4 vs tetraacetylated histone H4 peptide). Summed up: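 AlphaScreen read after 30 min dark incubation at room temperature with glutathione acceptor/streptavidin donor beads (10 μg/ml each). The beads were added to compound plus 100 nM biotin-H4 (K5,8,12,16-acetyl) peptide and 100 nM GST-BRD4 BD1+BD2 in pH 7.4 HEPES/Tween/BSA/DTT buffer.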
On the technique in general: Bead proximity is the source of the signal in Alpha formats.

[1] abbreviates: GST-BRD4 (BD1+BD2) / biotinylated acetyl-histone H4 (Lys5,8,12,16) peptide, read-out: IC50, BRD4 binding inhibition.
[2] abbreviates: GST-BRD4 (BD1+BD2) vs biotinylated acetyl-histone H4 peptide, AlphaScreen, read-out: BRD4 IC50.

Like-named read-outs stand apart in the source and are kept apart here.

Broadly, the IC50 is the point on the concentration scale where inhibition reaches its midpoint. On to `COc1ccc2c(c1)nc(NCCCCNC(=O)[C@H](C(C)C)N1CCC(CCO)CC1)c1nnc(C)n12` [Example 317, 2-(S)-[4-(2-hydroxy-ethyl)-piperidine-1-yl]-N-[4-(7-methoxy-1-methyl-[1,2,4]triazolo[4,3-a]quinoxaline-4-ylamino)-butyl]-3-methyl-butyramide], for which the IC50 reads like this: under setting [1], ≤ 50 nM; under setting [2], 31 nM.

`COc1cc2c(cc1C)nc(NCCCCNC(=O)[C@H](O)C(C)C)c1nnc(C)n12` [Example 152, 2-(R)-hydroxy-N-[4-(8-methoxy-1,7-dimethyl-[1,2,4]triazolo[4,3-a]quinoxaline-4-ylamino)-butyl]-3-methyl-butyramide]: under setting [2], the IC50 amounted to 96 nM.

With `Cc1nnc2c(NCCCCNC(=O)C(C)(C)O)nc3cc(-c4nc5ccccc5n4C)ccc3n12` [Example 232, 2-hydroxy-N-{4-(7-(1-methyl-1H-benzoimidazole-2-yl)-1-methyl-[1,2,4]triazolo[4,3-a]quinoxaline-4-ylamino)-butyl}-2-methyl-propionamide], the IC50 runs as follows: under setting [1], ≤ 50 nM; under setting [2], 33 nM.

On to `COCCOc1ccc2c(c1)nc(NCCCCNC(=O)Nc1ccccc1)c1nnc(C)n12` [Example 427, 3-{4-[7-(2-methoxy-ethoxy)-1-methyl-[1,2,4]triazolo[4,3-a]quinoxaline-4-ylamino]-butyl}-1-phenyl-urea], for which the 50% inhibitory concentration (IC50) is ≤ 50 nM under setting [1] and 17 nM under setting [2].

Take `Cc1nnc2c(NCCCCNC(=O)c3ccccc3)nc3ccc(C(=O)NCCN(C)C)cc3n12` [Example 537, 4-(4-benzoylamino)-1-methyl-[1,2,4]triazolo[4,3-a]quinoxaline-8-carboxylic acid-(2-dimethylamino-ethyl)-amide]: the IC50 under setting [2] was 93 nM.

Turning to `COc1ccc2nc(NCCCCNC(=O)C(C)(C)C)c3nnc(C)n3c2c1` [Example 123, N-[4-(8-methoxy-1-methyl-[1,2,4]triazolo[4,3-a]quinoxaline-4-ylamino)-butyl]-2,2-dimethyl-propionamide], the IC50 under setting [1] was ≤ 50 nM and the half-inhibitory concentration (IC50) under setting [2] came to 42 nM.

With `Cc1nnc2c(NCCCCOC(=O)C(C)C)nc3ccccc3n12` [Example 632], the IC50 under setting [1] is ≤ 50 nM and the IC50 under setting [2] is 44 nM.

As to “N-(4-{7-[4-(N-hydroxycarbamimidoyl)-benzoyl]-1-methyl-[1,2,4]triazolo[4,3-a]quinoxaline-4-ylamino}-butyl)-3-methyl-butyramide [Example 347]”, the IC50 is ≤ 50 nM under setting [1] and 18 nM under setting [2].

Consider `Cc1ccc2nc(NCCCCNC(=O)Nc3ccccc3)c3nnc(C)n3c2c1` [Example 46, 1-[4-(1,8-dimethyl-[1,2,4]triazolo[4,3-a]quinoxaline-4-ylamino)-butyl]-3-phenyl-urea], for which, under setting [2], the IC50 is 73 nM.

Turning to `CC(=O)OC(C)(C)C(=O)NCCCCNc1nc2cc(-c3nc4ccccc4n3C)ccc2n2c(C)nnc12` [Example 231, acetic acid-1-{4-[7-(1-methyl-1H-benzoimidazole-2-yl)-1-methyl-[1,2,4]triazolo[4,3-a]quinoxaline-4-ylamino]-butylcarbamoyl}-1-methyl-ethylester], the IC50 by setting is: under setting [1], ≤ 50 nM; under setting [2], 14 nM.

For `Cc1nnc2c(NCCCCNC(=O)OCc3ccccc3)nc3ccccc3n12` [Example 25, [4-(1-methyl-[1,2,4]triazolo[4,3-a]quinoxaline-4-ylamino)-butyl]-carbamic acid benzylester], the 50% inhibitory concentration (IC50) under setting [2] stood at 55 nM.

For the compound `COc1ccc2c(c1)nc(NCCCCNC(=O)C(C)(C)O)c1nnc(C)n12` [Example 297, 2-hydroxy-N-[4-(7-methoxy-1-methyl-[1,2,4]triazolo[4,3-a]quinoxaline-4-ylamino)-butyl]-2-methyl-propionamide], the half-inhibitory concentration (IC50) reads like this: under setting [1], ≤ 50 nM; under setting [2], 27 nM.

For the compound `Cc1nnc2c(NCCCCNC(=O)CC(C)C)nc3cc(Cl)c(Cl)cc3n12` [Example 30, N-[4-(7,8-dichloro-1-methyl-[1,2,4]triazolo[4,3-a]quinoxaline-4-ylamino)-butyl]-3-methyl-butyramide], the IC50 under setting [1] was ≤ 10 nM.

With `COc1cc2c(cc1C)nc(NCCCCNC(=O)c1ccccc1F)c1nnc(C)n12` [Example 155, 2-fluoro-N-[4-(8-methoxy-1,7-dimethyl-[1,2,4]triazolo[4,3-a]quinoxaline-4-ylamino)-butyl]-benzamide], the IC50 under setting [2] was 77 nM.

In the case of `COc1cc(C(F)(F)F)cc2c1nc(NCCCCNC(=O)OC(C)C)c1nnc(C)n12` [Example 144, [4-(6-methoxy-1-methyl-8-trifluoromethyl-[1,2,4]triazolo[4,3-a]quinoxaline-4-ylamino)-butyl]-carbamic acid isopropylester], the IC50 under setting [1] is ≤ 50 nM and the IC50 under setting [2] was determined as 38 nM.

On to `COCC(=O)NCCCCNc1nc2cc(OC)c(OC)cc2n2c(C)nnc12` [Example 80, N-[4-(7,8-dimethoxy-1-methyl-[1,2,4]triazolo[4,3-a]quinoxaline-4-ylamino)-butyl]-2-methoxy-acetamide], for which the IC50 runs as follows: under setting [1], ≤ 50 nM; under setting [2], 28 nM.

Regarding `COc1cc2c(cc1C)nc(NCCCCNC(=O)c1ccccc1)c1nnc(C)n12` [Example 154, N-[4-(8-methoxy-1,7-dimethyl-[1,2,4]triazolo[4,3-a]quinoxaline-4-ylamino)-butyl]-benzamide], under setting [2], the IC50 amounted to 78 nM.

Turning to `CCNC(=O)NCCCCNc1nc2cc(OC)c(OC)cc2n2c(C)nnc12` [Example 89, 1-[4-(7,8-dimethoxy-1-methyl-[1,2,4]triazolo[4,3-a]quinoxaline-4-ylamino)-butyl]-3-ethyl-urea], the IC50 under setting [1] is ≤ 50 nM and the IC50 under setting [2] was 47 nM.

`Cc1nnc2c(NCCCCNC(=O)Nc3ccccc3)nc3ccc(F)cc3n12` [Example 53, 1-[4-(8-fluoro-1-methyl-[1,2,4]triazolo[4,3-a]quinoxaline-4-ylamino)-butyl]-3-phenyl-urea]: the IC50 under setting [2] turned out to be 60 nM.

For `COCCOc1ccc2c(c1)nc(NCCCCNC(=O)C(C)C)c1nnc(C)n12` [Example 376, {4-[7-(2-methoxy-ethoxy)-1-methyl-[1,2,4]triazolo[4,3-a]quinoxaline-4-ylamino]-butyl}-isobutyramide], under setting [1], the IC50 was ≤ 50 nM.

For `COc1cc2nc(NCCCCNC(=O)N3CCOCC3)c3nnc(C)n3c2cc1OC` [Example 92, morpholine-4-carboxylic acid-[4-(7,8-dimethoxy-1-methyl-[1,2,4]triazolo[4,3-a]quinoxaline-4-ylamino)-butyl]-amide], the concentration for half-maximal inhibition (IC50) under setting [1] is ≤ 50 nM and the IC50 under setting [2] was 41 nM.

`COCCOc1ccc2c(c1)nc(NCCCCNC(=O)c1ccccn1)c1nnc(C)n12` [Example 416, pyridine-2-carboxylic acid-{4-[7-(2-methoxy-ethoxy)-1-methyl-[1,2,4]triazolo[4,3-a]quinoxaline-4-ylamino]-butyl}-amide]: under setting [2], the IC50 was 52 nM.

Consider `COc1ccc2c(c1)nc(NCCCCNC(=O)[C@H](Cc1ccc(O)cc1)NC(=O)OC(C)(C)C)c1nnc(C)n12` [Example 325, (S)-{2-(4-hydroxy-phenyl)-1-[4-(7-methoxy-1-methyl-[1,2,4]triazolo[4,3-a]quinoxaline-4-ylamino)-butylcarbamoyl]-ethyl}-carbamic acid-tert-butylester], for which the IC50 under setting [2] was 71 nM.
